Paper PMC8187357 (Communications Biology, 2021)
Where “and” joins values, the source holds several entries; their conditions need not be identical. Equal entries are not always repeated.

Legend:
Glutamate PCP = assay: CEREP 80 panel binding: Glutamate; settings: 10 µM
Protocol: (§1) CEREP 80 panel assay was carried out by Eurofins Cerep Panlabs facility at France. A series of binding assays was carried out to understand the off-target toxicity of CA-170. CA-170 was tested at 10 μM test concentration in duplicates. Compound binding was calculated as a % inhibition of the binding of a radioactively labeled ligand specific for each target. In each experiment the respective reference compound was tested concurrently with CA-170, and the data were compared with historical values determined at Eurofins. The experiment was accepted in accordance with Eurofins validation standard operating procedure. The results are expressed as a percent of control specific binding; (measured specific binding / control specific binding) × 100 and as a percent inhibition of control specific binding; 100−(measured specific binding / control specific binding) × 100 obtained in the presence of CA-170. The IC50 values (concentration causing a half-maximal inhibition of control specific binding) and Hill coefficients (nH) were determined by non-linear regression analysis of the competition curves generated with mean replicate values using Hill equation curve fitting.

MC38 tumor bearing mice = assay: Immune pharmacodynamics in MC38 model; assay type: in vivo, mouse; settings: CA-170, 10 mg/kg, individual animals
From the text: For the measurement of immune pharmacodynamics, CT26 cells were subcutaneously implanted into 5 to 7 weeks old male Balb/c mice by injecting 1 million CT26 tumor cells/ animal. When tumor volume reached ~200mm^3, animals were randomized and allocated to three treatment groups (n = 5). Similarly, for the measurement of immune pharmacodynamics in MC38 model, MC38 cell lines were subcutaneously implanted into 5 to 7 weeks old male C57B6 mice by injecting 0.5 million cells/animal. Dosing was initiated when tumor volume reached ~100 mm^3. In both tumor models, mice were orally treated daily with vehicle and CA-170 (10 mg/kg) for 5 days. As an additional control, anti-PD1 antibody (100 μg/animal, clone J43) was dosed intraperitoneally on day 1. After 24 h of last dosing, animals were sacrificed, and blood samples and tumor tissues were collected from each animal and processed for PD evaluation using antibodies shown in Supplementary Table 1 and specific methods reported in publication[51] and analyzed by FACS. The gating strategy is detailed in Supplementary Fig. 3.

PD-L2 [1] = target: T1, PD-L2 (Homo sapiens, UniProt Q9BQ51); assay: Rescue of proliferation inhibited by PD-L2, human PBMC; assay type: cell-based; settings: mean ± S.D.; n=3
T1 construct: purchased R&D systems 1224-PL-100
Protocol: (§2) The ability of peptides, peptidomimetics, and small molecules were analyzed for their ability to rescue T-cell proliferation or IFN-γ release from the inhibitory activity of PD-L1 or PD-L2 in a splenocyte/PBMC-based functional assay as per the protocols reported in publication. […] For all in vitro assays, test agent stock was prepared in water and diluted further in the assay media to achieve test concentrations. Each experimental condition was carried out in triplicates. Percent rescue for a given test compound concentration was calculated by normalizing individual percent test agent proliferation or IFN-γ release values to percent anti-CD3 and anti-CD28 antibodies stimulated proliferation or IFN-γ release. EC50 values were derived by plotting transformed data into non-linear fit in sigmoidal dose–response curve using GraphPad Prism software (Version 7).

PD-L1 = PD-L1 (Homo sapiens, UniProt Q9NZQ7); assay: Rescue of IFN-γ release inhibited by PD-L1, human PBMC; assay type: cell-based; design: purchased R&D systems 156-B7-100; settings: for IFNγ Rescue (%): inhibited by PD-L1; for IFNγ Rescue (%) / IFN-γ: replicates; for IFN-γ: human PBMCs + anti-CD3/anti-CD28 + PD-L1 10 nM
Protocol: as §2

PD-L2 [2] = target: T1, PD-L2; assay: Rescue of IFN-γ release inhibited by PD-L2, human PBMC; assay type: cell-based; settings: for IFNγ Rescue (%): inhibited by PD-L2; for IFNγ Rescue (%) / IFN-γ: replicates; for IFN-γ: human PBMCs + anti-CD3/anti-CD28 + PD-L2 10 nM
Protocol: as §2

PDGF = assay: CEREP 80 panel binding: Growth factors; settings: 10 µM
Protocol: as §1

[3] = tested on: 5HT1A, 5HT1B, 5HT2A, 5HT2B, 5HT2C, 5HT3, 5HT5A, 5HT6, 5HT7; assay: CEREP 80 panel binding: Serotonin; settings: 10 µM
Protocol: as §1

B16F10 melanoma = B16F10 melanoma lung metastasis model; assay type: in vivo, mouse; settings: 10 mg/kg/day orally for 14 days
Protocol: Studies in syngeneic models including B16 melanoma metastasis model and CT26 colon carcinoma subcutaneous model were performed as described. For the Docetaxel combination experiment in CT26 model, indicated dosage of docetaxel (Source: Docetere® injection by Dr Reddy’s Laboratories) was dosed intraperitoneally to animals. For the CA-170 combination groups, CA-170 (10 mg/kg/day, oral) was dosed ~10 min after docetaxel. Animal grouping, treatment efficacy assessment and %TGI calculations were performed as mentioned above. For the CT26 experiment with cyclophosphamide, 100 mg/kg of cyclophosphamide was dosed once on day 5 intraperitoneally after cell implantation (first day of dosing for all other groups). Anti-PD1 antibody (Clone J43 from BioXcel) was dosed intraperitoneally at 100 µg/animal once every week.

[4] = tested on: Amine transporters DA, NE, 5HT; assay: CEREP 80 panel binding: Amine transporters; settings: 10 µM
Protocol: as §1

GR, PPARγ = assay: CEREP 80 panel binding: Nuclear receptors; settings: 10 µM
Protocol: as §1

[5] = tested on: Muscarinic M1, M2, M3, M4, M5; assay: CEREP 80 panel binding: Muscarinic; settings: 10 µM
Protocol: as §1

Adenosine A1, A2A, A3 = assay: CEREP 80 panel binding: Adenosine; settings: 10 µM
Protocol: as §1

NeuropeptideY Y2 = target: T2, NeuropeptideY Y2 (Homo sapiens, UniProt P49146); assay: Y2 assay, determination of IC50 (CEREP follow-up); assay type: binding
T2 construct: Eurofins Cerep Panlabs (contract laboratory)
Protocol: as §1
Opioid & Opioid like DOP, KOP, MOP, NOP ≤9
Nuclear receptors GR, PPARγ ≤7
Ion Channels Ca2+, Kv, Skca, […] 1
Amine transporters DA, NE, 5HT ≤1
25% effect at the highest validated testing concentration.

Galanin GAL1, GAL2 = assay: CEREP 80 panel binding: Galanin; settings: 10 µM
Protocol: as §1

Endothelin ETA, ETB = assay: CEREP 80 panel binding: Endothelin; settings: 10 µM
Protocol: as §1

[6] = human PBMCs stimulated with anti-CD3 and anti-CD28

Chain of PD-L1 (Q9NZQ7 with tags, fused parts or gaps limits assumed): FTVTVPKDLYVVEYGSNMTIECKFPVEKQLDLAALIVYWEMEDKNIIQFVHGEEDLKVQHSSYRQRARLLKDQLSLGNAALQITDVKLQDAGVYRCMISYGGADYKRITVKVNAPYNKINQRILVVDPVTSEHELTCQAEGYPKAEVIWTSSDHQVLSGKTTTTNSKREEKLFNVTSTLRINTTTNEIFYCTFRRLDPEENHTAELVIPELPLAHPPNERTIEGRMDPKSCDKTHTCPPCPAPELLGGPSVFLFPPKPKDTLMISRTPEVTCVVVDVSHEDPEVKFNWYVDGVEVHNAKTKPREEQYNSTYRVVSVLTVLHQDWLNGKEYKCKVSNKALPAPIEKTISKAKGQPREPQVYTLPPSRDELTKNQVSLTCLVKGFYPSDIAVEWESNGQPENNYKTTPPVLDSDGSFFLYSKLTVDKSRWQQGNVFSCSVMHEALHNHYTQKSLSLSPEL
T1 sequence (Q9BQ51 with tags, fused parts or gaps limits assumed): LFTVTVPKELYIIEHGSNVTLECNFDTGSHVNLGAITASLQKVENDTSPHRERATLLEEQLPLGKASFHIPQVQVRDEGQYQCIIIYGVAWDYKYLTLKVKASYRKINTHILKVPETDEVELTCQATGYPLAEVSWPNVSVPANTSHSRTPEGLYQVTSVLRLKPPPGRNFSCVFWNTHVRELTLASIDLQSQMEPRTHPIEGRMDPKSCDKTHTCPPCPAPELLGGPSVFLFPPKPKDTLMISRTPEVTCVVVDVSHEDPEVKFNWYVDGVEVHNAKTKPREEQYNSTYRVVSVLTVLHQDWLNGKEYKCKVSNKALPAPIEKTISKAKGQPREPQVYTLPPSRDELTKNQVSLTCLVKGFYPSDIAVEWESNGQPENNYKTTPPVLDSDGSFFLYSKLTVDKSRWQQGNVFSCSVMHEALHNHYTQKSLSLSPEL
T2 sequence (P49146 whole entry): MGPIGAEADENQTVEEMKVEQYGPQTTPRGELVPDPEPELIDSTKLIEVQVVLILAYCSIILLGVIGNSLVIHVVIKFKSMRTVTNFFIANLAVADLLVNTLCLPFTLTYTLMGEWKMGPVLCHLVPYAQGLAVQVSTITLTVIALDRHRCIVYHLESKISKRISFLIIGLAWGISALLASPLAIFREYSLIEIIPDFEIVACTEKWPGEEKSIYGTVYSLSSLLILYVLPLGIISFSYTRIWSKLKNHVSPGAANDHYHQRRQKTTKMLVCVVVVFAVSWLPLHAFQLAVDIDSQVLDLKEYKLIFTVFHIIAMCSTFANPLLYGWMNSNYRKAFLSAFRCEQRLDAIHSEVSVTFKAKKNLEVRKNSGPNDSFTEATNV

C[C@@H](O)[C@H](NC(=O)N[C@@H](CC(N)=O)c1nc([C@@H](N)CO)no1)C(=O)O [CA-170] was tested, and the “% Inhibition of Control Specific Binding” value (Glutamate PCP) was 5%, the “CD8+ GNZ+ T cells in Tumor % Lymphocytes, CD3+, CD8+ T cells” value (MC38 tumor bearing mice) was 52.4% and 36.3% and 28.5% and 36.2% and 20.1% and the “CD8+ IFN-γ+ T cells in Blood % Lymphocytes, CD3+, CD8+ T cells” value (MC38 tumor bearing mice) was 1.71% and 2.24% and 2.27% and 1.35% and 2.63%. The “CD8+ IFN-γ+ T cells in Tumor % Lymphocytes, CD3+, CD8+ T cells” value (MC38 tumor bearing mice) was 64.9% and 53.2% and 43.5% and 48.8% and 40.7%, the EC50 (PD-L2 [1]) was 51.5 nM and the “IFNγ Rescue (%)” value (PD-L1; 1.95 nM) was -2.66% and -2.30% and -1.54%. The “IFNγ Rescue (%)” value (PD-L1; 3.91 nM) was -2.42% and -2.56% and -1.54%, the “IFNγ Rescue (%)” value (PD-L1; 15.63 nM) was 20.10% and 20.46% and 27.08% and the IFN-γ (PD-L1; 31.25 nM) was 256.5 pg/mL and 264 pg/mL and 296.5 pg/mL. For the same compound, the “IFNγ Rescue (%)” value (PD-L1; 31.25 nM) was 21.31% and 22.51% and 31.08%, the “IFNγ Rescue (%)” value (PD-L1; 62.50 nM) was 42.13% and 43.48% and 57.23% and the “IFNγ Rescue (%)” value (PD-L1; 250.00 nM) was 76.76% and 83.89% and 104.62%. The IFN-γ (PD-L1; 500 nM) was 876.5 pg/mL and 939 pg/mL and 906.5 pg/mL, the “IFNγ Rescue (%)” value (PD-L1; 500.00 nM) was 81.36% and 91.56% and 106.15% and the “rescue of IFNγ release inhibited by recombinant PD-L1 (in words)” value (PD-L1; [6]) was “rescued IFNγ release”. The EC50 (PD-L1; mean ± S.D., n=3) was 66.1 nM, the “IFNγ Rescue (%)” value (PD-L2 [2]; 1.95 nM) was -64.52% and -5.10% and -5.67% and the “IFNγ Rescue (%)” value (PD-L2 [2]; 3.91 nM) was -3.89% and -4.90% and -5.25%. The “IFNγ Rescue (%)” value (PD-L2 [2]; 7.81 nM) was -1.08% and -2.04% and -2.73%, the “IFNγ Rescue (%)” value (PD-L2 [2]; 15.63 nM) was 4.10% and 2.24% and 2.52% and the IFN-γ (PD-L2 [2]; 31.25 nM) was 66.5 pg/mL and 74 pg/mL and 64 pg/mL. The “IFNγ Rescue (%)” value (PD-L2 [2]; 31.25 nM) was 4.10% and 2.86% and 1.89%, the “IFNγ Rescue (%)” value (PD-L2 [2]; 62.50 nM) was 39.96% and 36.33% and 35.71% and the “IFNγ Rescue (%)” value (PD-L2 [2]; 250.00 nM) was 74.73% and 74.90% and 79.20%. The IFN-γ (PD-L2 [2]; 500 nM) was 869 pg/mL and 984 pg/mL and 1059 pg/mL, the “IFNγ Rescue (%)” value (PD-L2 [2]; 500.00 nM) was 73.43% and 77.14% and 85.50% and the “rescue of IFNγ release inhibited by recombinant PD-L2 (in words)” value (PD-L2 [2]; [6]) was “rescued IFNγ release”. For the same compound, the EC50 (PD-L2 [2]; mean ± S.D., n=3) was 80.9 nM, the “% Inhibition of Control Specific Binding” value (PDGF) was 6% and the “% Inhibition of Control Specific Binding” value [3] was ≤ 20%. For the same compound, the “reduction in metastatic nodules” value (B16F10 melanoma; B16F10, vs vehicle control) was 73%, the “Individual Metastatic nodules on lungs” value (B16F10 melanoma; B16F10 iv in C57B6 mice, 10 mg/kg/day) was 3 and 23 and 2 and 13 and 0 and 8 and 1 and 10 and 14 and the “% Inhibition of Control Specific Binding” value [4] was ≤ 1%. The “% Inhibition of Control Specific Binding” value (GR, PPARγ) was ≤ 7%, the “% Inhibition of Control Specific Binding” value [5] was ≤ 12% and the “% Inhibition of Control Specific Binding” value (Adenosine A1, A2A, A3) was ≤ 26%. For the same compound, the “EC50 value (Y2 assay taken for determination of IC50)” value (NeuropeptideY Y2; Y2) was “not calculable”, the “effect at the highest validated testing concentration” value (NeuropeptideY Y2; Y2 concentration-response curve) was “less than 25%” and the “% Inhibition of Control Specific Binding” value (Galanin GAL1, GAL2) was ≤ 12%. For the same compound, the “% Inhibition of Control Specific Binding” value (Endothelin ETA, ETB) was ≤ 9%.
